Assay results taken from patent US20260374739A1, “SMALL MOLECULAR WEIGHT CHEMICAL COMPOUND TO ANTAGONIZE EPH-EPHRIN TETRAMERIZATION AND INHIBIT BIDIRECTIONAL SIGNALING” (THE BOARD OF REGENTS OF THE UNIVERSITY OF TEXAS SYSTEM, priority 2022, published 2026).
“And” between values parts separate entries of the source, which are not always exact repeats. Equal entries are not always repeated. “Also recorded” adds a separate entry of the source. Where two headings read alike, the source gives them in different places. Marks after values point to notes of the source that are not given here.

Tests used:
[1] = target: T1, EphrinB2-EphB2 (Homo sapiens, UniProt P29323); assay: Octet tetramerization inhibition, immobilized human EphrinB2 binding to 50 nM soluble human EphB2
T1 construct: soluble human EphB1-His, EphB2-His, and EphB4-His ectodomains; commercially available human EphrinB1-Fc (EB1), EphrinB2-Fc (EB2), and EphrinB3-Fc (EB3) ectodomain proteins; purchased
T1 sequence (P29323 19-543 limits assumed): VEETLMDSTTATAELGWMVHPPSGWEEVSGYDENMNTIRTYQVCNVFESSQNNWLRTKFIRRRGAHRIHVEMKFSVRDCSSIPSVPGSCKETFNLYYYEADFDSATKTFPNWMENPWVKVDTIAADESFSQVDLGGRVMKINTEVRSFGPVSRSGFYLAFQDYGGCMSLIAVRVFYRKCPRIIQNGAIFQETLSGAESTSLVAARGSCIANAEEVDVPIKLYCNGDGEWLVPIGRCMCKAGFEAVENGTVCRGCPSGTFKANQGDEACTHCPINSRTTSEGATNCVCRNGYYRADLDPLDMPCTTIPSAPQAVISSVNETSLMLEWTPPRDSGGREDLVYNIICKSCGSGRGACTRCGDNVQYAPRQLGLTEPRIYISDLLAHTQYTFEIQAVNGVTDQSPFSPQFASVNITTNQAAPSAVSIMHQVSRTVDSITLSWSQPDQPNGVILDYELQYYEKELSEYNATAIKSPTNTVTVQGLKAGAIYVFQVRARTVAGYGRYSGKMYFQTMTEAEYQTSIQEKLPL

[2] = target: T1, EphrinB2-EphB2; assay: Octet 80 sec association/500 sec dissociation, immobilized human EphrinB2-Fc binding to soluble human EphB2-His; settings: for inhibition at 3.2 µM / IC50 / inhibition: EphB2; for inhibition at 3.2 µM: 25 nM EphB2, 3.2 μM compound, A20-I as max control, 0* = less than 0, no inhibition; for EphB2 Inhibition Percent, Inhibition of Association ONLY: at 3.2 μM and 80 seconds; for EphB2 Inhibition Percent, Inhibition of Association ONLY / EphB2 Inhibition Percent, Inhibition of Association-Dissociation: immobilized human EphrinB2, 25 nM soluble human EphB2; for EphB2 Inhibition Percent, Inhibition of Association-Dissociation: at 3.2 μM and 580 seconds; for inhibition: highest dose, typically 3.2 μM
How it was run: (§1)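 EphrinB2-Fc captured on AHC biosensors, then soluble His-tagged EphB ectodomain (25 nM for % inhibition runs) associated 80 s and dissociated 500 s in PBS, 0.05% Tween-20, 1% DMSO ± compound. Compounds tested at 0.1–3.2 μM with a 10 μM max standard; IC50 from AUC of full traces or at 75 s and 135 s.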

[3] = target: T2, EphrinB2-EphB4 (Homo sapiens, UniProt P54760); assay: Octet 80 sec association/500 sec dissociation, immobilized human EphrinB2-Fc binding to soluble human EphB4-His; settings: for selectivity among EphrinB2-EphB1/B2/B4: 3.2 μM; for inhibition at 3.2 µM: 25 nM EphB4, 3.2 μM compound, A20-I as max control, 0* = less than 0, no inhibition; for EphB4 Inhibition Percent, Inhibition of Association ONLY: at 3.2 μM and 80 seconds; for EphB4 Inhibition Percent, Inhibition of Association ONLY / EphB4 Inhibition Percent, Inhibition of Association-Dissociation: immobilized human EphrinB2, 25 nM soluble human EphB4; for EphB4 Inhibition Percent, Inhibition of Association-Dissociation: at 3.2 μM and 580 seconds; for inhibition: highest dose, typically 3.2 μM
T2 construct: soluble human EphB1-His, EphB2-His, and EphB4-His ectodomains; commercially available human EphrinB1-Fc (EB1), EphrinB2-Fc (EB2), and EphrinB3-Fc (EB3) ectodomain proteins; purchased
T2 sequence (P54760 16-539 limits assumed): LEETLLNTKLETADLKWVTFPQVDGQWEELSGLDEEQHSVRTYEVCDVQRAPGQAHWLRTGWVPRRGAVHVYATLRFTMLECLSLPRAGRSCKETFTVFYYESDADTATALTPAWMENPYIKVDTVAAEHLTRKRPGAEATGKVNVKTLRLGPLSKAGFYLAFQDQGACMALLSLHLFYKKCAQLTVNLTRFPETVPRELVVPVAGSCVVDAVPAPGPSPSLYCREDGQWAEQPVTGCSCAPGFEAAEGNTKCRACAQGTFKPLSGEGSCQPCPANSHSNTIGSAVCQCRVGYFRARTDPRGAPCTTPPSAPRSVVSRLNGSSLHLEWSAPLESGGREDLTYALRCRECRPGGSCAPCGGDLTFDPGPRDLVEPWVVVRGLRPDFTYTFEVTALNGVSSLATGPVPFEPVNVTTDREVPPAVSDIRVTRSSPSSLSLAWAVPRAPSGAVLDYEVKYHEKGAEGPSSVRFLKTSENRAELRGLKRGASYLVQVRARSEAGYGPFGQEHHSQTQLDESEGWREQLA
How it was run: as §1

[4] = Absolute AUC/IC50, Table A, EphrinB2-EphB2
[5] = Absolute Association IC50 (300 sec), Table A, EphrinB2-EphB2
[6] = Absolute Dissociation IC50 (450 sec), Table A, EphrinB2-EphB2
[7] = Relative Association IC50 (300 sec), Table A, EphrinB2-EphB2
[8] = Relative Dissociation IC50 (450 sec), Table A, EphrinB2-EphB2
[9] = tetramerization inhibitor IC50 (relative), association step, surmountable tetramer
[10] = read-out: % Inhibition: Association + Dissociation (160 sec)
[11] = read-out: % Inhibition: Association ONLY (80 sec)
[12] = EphB4, read-out: % Inhibition: Association + Dissociation (160 sec)
[13] = EphB4, read-out: % Inhibition: Association ONLY (80 sec)
[14] = Relative AUC/IC50, Table A, EphrinB2-EphB2, compound 7: association only

SMILES: O=[N+]([O-])c1cc(CN2CCS(=O)(=O)CC2)c2cccnc2c1O [Compound 20, 4-((8-hydroxy-7-nitroquinolin-5-yl)methyl)thiomorpholine 1,1-dioxide]
- IC50 [1, 4]: > 3200 nM
- IC50 [1, 5]: > 3200 nM
- IC50 [1, 6]: > 3200 nM
- IC50 [1, 7]: 2140 nM
- IC50 [1, 8]: 2090 nM
- IC50 [1, 9]: > 3000 nM
- inhibition at 3.2 µM [2, 10]: 51.7%
- inhibition at 3.2 µM [2, 11]: 36.7%
- inhibition of EphB2-EphrinB2 binding ([2]; association step, general): 40%
- selectivity among EphrinB2-EphB1/B2/B4 ([3]; listed as QTM-NO2): ability to selectively inhibit EphrinB2-EphB2 and EphrinB2-EphB1 interactions, while sparing the EphrinB2-EphB4 interaction; also recorded: less action towards EphB4 but high specificity for EphB1 and EphB2
- inhibition at 3.2 µM [3, 12]: 0%
- inhibition at 3.2 µM [3, 13]: 0%

SMILES: Oc1ccc(CN2CCN(c3ccc(Br)cc3)CC2)c2cccnc12 [Compound 26, 5-((4-(4-bromophenyl)piperazin-1-yl)methyl)quinolin-8-ol]
- IC50 [1, 9]: 1200 nM
- EphB2 Inhibition Percent, Inhibition of Association ONLY [2]: 35.9%
- EphB2 Inhibition Percent, Inhibition of Association-Dissociation [2]: 60.1%
- selectivity among EphrinB2-EphB1/B2/B4 ([3]; listed as QPB4): ability to selectively inhibit EphrinB2-EphB2 and EphrinB2-EphB1 interactions, while sparing the EphrinB2-EphB4 interaction; also recorded: less action towards EphB4 but high specificity for EphB1 and EphB2
- EphB4 Inhibition Percent, Inhibition of Association ONLY [3]: 0*%
- EphB4 Inhibition Percent, Inhibition of Association-Dissociation [3]: 0*%

SMILES: Oc1c(Br)cc(CN2CCN(c3ccc(Br)cc3)CC2)c2cccnc12 [Compound 28, 7-bromo-5-((4-(4-bromophenyl)piperazin-1-yl)methyl)quinolin-8-ol]
- inhibition of unsurmountable tetramer [1]: 100%
- disruption of unsurmountable tetramer ([1]; 0.8-3.2 μM): complete loss of this structure at 3.2 μM
- IC50 [1, 4]: 360 nM and 530 nM and 590 nM and 510 nM
- IC50 [1, 5]: 380 nM and 580 nM and 680 nM and 780 nM
- IC50 [1, 6]: 350 nM and 400 nM and 580 nM and 630 nM
- IC50 [1, 14]: 220 nM and 370 nM and 230 nM and 320 nM
- IC50 [1, 7]: 300 nM and 330 nM (2×) and 400 nM
- IC50 [1, 8]: 300 nM and 420 nM and 370 nM
- IC50 [1, 9]: ~300 nM
- IC50 ([1]; tetramerization inhibitor IC50, surmountable tetramer): ~300 nM
- IC50 ([2]; Association (75″), read-out: Absolute IC50): 320 nM
- IC50 ([2]; Association (75″), read-out: Relative IC50): 280 nM
- IC50 ([2]; Association (AUC), read-out: Absolute IC50): 360 nM
- IC50 ([2]; Association (AUC), read-out: Relative IC50): 280 nM
- IC50 ([2]; Dissociation (135″), read-out: Absolute IC50): 250 nM
- IC50 ([2]; Dissociation (135″), read-out: Relative IC50): 230 nM
- IC50 ([2]; Full AUC, read-out: Absolute IC50): 200 nM
- IC50 ([2]; Full AUC, read-out: Relative IC50): 180 nM
- inhibition ([2]; read-out: Association (% Inhibited (AUC))): 62.5%
- inhibition ([2]; read-out: Association + Dissociation (% Inhibited (AUC))): 78.7%
- % Inhibited (AUC), Association + Dissociation ([3]; EphB4, 0-160 sec, 50 nM, 10 μM compound, Table 4): 29.3%
- % Inhibited (AUC), Association ([3]; EphB4, 50 nM, 10 μM compound, Table 4): 16.6%
- IC50 ([3]; EphB4, Association (75″), read-out: Absolute IC50): > 3200 nM
- IC50 ([3]; EphB4, Association (75″), read-out: Relative IC50): 80 nM
- IC50 ([3]; EphB4, Association (AUC), read-out: Absolute IC50): > 3200 nM
- IC50 ([3]; EphB4, Association (AUC), read-out: Relative IC50): 120 nM
- IC50 ([3]; EphB4, Dissociation (135″), read-out: Absolute IC50): 780 nM
- IC50 ([3]; EphB4, Dissociation (135″), read-out: Relative IC50): 200 nM
- IC50 ([3]; EphB4, Full AUC, read-out: Absolute IC50): 320 nM
- IC50 ([3]; EphB4, Full AUC, read-out: Relative IC50): 260 nM
- inhibition ([3]; EphB4, read-out: Association (% Inhibited (AUC))): 12.5%
- inhibition ([3]; EphB4, read-out: Association + Dissociation (% Inhibited (AUC))): 36.4%

SMILES: Oc1c(Br)cc(CN2CCN(c3ccc(Br)cc3)CC2)c2cccnc12 [Compound 30, 7-bromo-5-((4-(4-bromophenyl)piperazin-1-ium-1-yl)methyl)-8-hydroxyquinolin-1-ium chloride]
- IC50 [1, 4]: 260 nM
- IC50 [1, 5]: 600 nM
- IC50 [1, 14]: 290 nM and 260 nM
- IC50 [1, 8]: 340 nM
- EphB2 Inhibition Percent, Inhibition of Association ONLY [2]: 57.7% and 62.5%
- EphB2 Inhibition Percent, Inhibition of Association-Dissociation [2]: 72.9% and 78.7%
- EphB4 Inhibition Percent, Inhibition of Association ONLY [3]: 16.6% and 12.5%
- EphB4 Inhibition Percent, Inhibition of Association-Dissociation [3]: 29.3% and 36.4%

SMILES: Oc1ccc(CN2CCN(c3ccc(Br)cn3)CC2)c2cccnc12 [Compound 33, 5-((4-(5-bromopyridin-2-yl)piperazin-1-yl)methyl)quinolin-8-ol]
- IC50 [1, 4]: 2510 nM
- IC50 [1, 5]: > 3200 nM
- IC50 [1, 14]: 2190 nM
- IC50 [1, 7]: 1820 nM
- IC50 [1, 8]: 2240 nM
- inhibition at 3.2 µM [2, 10]: 81.6%
- inhibition at 3.2 µM [2, 11]: 69.4%
- inhibition at 3.2 µM [3, 12]: 36.9%
- inhibition at 3.2 µM [3, 13]: 20.9%

SMILES: Oc1ccc(CN2CCN(Cc3ccccc3)CC2)c2cccnc12 [Compound 41, 5-((4-benzylpiperazin-1-yl)methyl)quinolin-8-ol]
- IC50 [1, 4]: 2090 nM and > 3200 nM
- IC50 [1, 5]: 2820 nM and 3020 nM
- IC50 [1, 6]: 3020 nM and 3000 nM
- IC50 [1, 14]: 2140 nM
- IC50 [1, 7]: 1820 nM
- IC50 [1, 8]: 2240 nM and 2000 nM
- inhibition at 3.2 µM [2, 10]: 25.3%
- inhibition at 3.2 µM [2, 11]: 9.1%
- selectivity among EphrinB2-EphB1/B2/B4 ([3]; listed as QPBN): more selective for EphB1
- inhibition at 3.2 µM [3, 12]: 2.6%
- inhibition at 3.2 µM [3, 13]: 0%

SMILES: Oc1ccc(CN2CCN(Cc3ccc(Br)cc3)CC2)c2cccnc12 [Compound 42, 5-((4-(4-bromobenzyl)piperazin-1-yl)methyl)quinolin-8-ol]
- IC50 [1, 4]: 2510 nM
- IC50 [1, 6]: 1910 nM
- IC50 [1, 14]: 930 nM
- IC50 [1, 7]: 1020 nM
- IC50 [1, 8]: 1050 nM
- inhibition at 3.2 µM [2, 10]: 56.3%
- inhibition at 3.2 µM [2, 11]: 37.8%
- selectivity among EphrinB2-EphB1/B2/B4 [3]: ability to selectively inhibit EphrinB2-EphB2 and EphrinB2-EphB1 interactions, while sparing the EphrinB2-EphB4 interaction
- inhibition at 3.2 µM [3, 12]: 0%
- inhibition at 3.2 µM [3, 13]: 0%
